According to PMC6271834, “Antiprotozoal Activity of (E)-Cinnamic N-Acylhydrazone Derivatives” (Molecules, 2014):
Like-named read-outs stand apart in the source and are kept apart here.

Assays:
[1] = test system: Trypanosoma brucei rhodesiense (STIB900); assay: Trypanocidal activity, bloodstream forms, Alamar Blue; assay type: cell-based; details: read-out: T.b. rhod. IC50
Method: Minimum essential medium (50 μL) supplemented according to a known procedure with 2-mercaptoethanol and 15% heat-inactivated horse serum was added to each well of a 96-well microtiter plate. Serial drug dilutions were prepared covering a range from 90 to 0.123 μg/mL. Then 10^4 bloodstream forms of T. b. rhodesiense STIB 900 in 50 μL were added to each well and the plate incubated at 37 °C under a 5% CO2 atmosphere for 72 h. Ten microliters of Alamar Blue (containing 12.5 mg resazurin dissolved in […] distilled water) were then added to each well and incubation continued for a further 2–4 h. The Alamar Blue dye is an indicator of cellular growth and/or viability. The blue, non-fluorescent, oxidized form becomes pink and fluorescent upon reduction by living cells. The plate was then read in a Spectramax Gemini XS microplate fluorometer (Molecular Devices Cooperation, Sunnyvale, CA, USA) using an excitation wavelength of 536 nm and emission wavelength of 588 nm. Fluorescence development was measured and expressed as percentage of the control. Data were transferred into the graphic programme Softmax Pro (Molecular Devices,) which calculated IC50 values. Melarsoprol was used as standard.

[2] = test system: Leishmania donovani (MHOM/ET/67/L82) axenic amastigotes; assay: Leishmanicidal activity, axenic amastigotes, Alamar Blue; assay type: cell-based; details: for SI (Selectivity Index for leishmanicidal activity): L-6 cells versus L. donovani; for IC50: Leishmania donovani, axenic amastigotes, strain MHOM/ET/67/L82, 72 h, means of two determinations, read-out: L. donovani IC50
Method: Amastigotes of Leishmania donovani strain MHOM/ET/67/L82 were grown in axenic culture at 37 °C in SM medium at pH 5.4 supplemented with 10% heat-inactivated fetal bovine serum under an atmosphere of 5% CO2 in air. One hundred microliters of culture medium with 10^5 amastigotes from axenic culture with or without the compound to test were seeded in 96-well microtiter plates. […] Each drug was tested in duplicate and each assay was repeated at least once. After 72 h of incubation the plates were inspected under an inverted microscope to assure growth of the controls and sterile conditions. Ten microliters of Alamar Blue (12.5 mg resazurin dissolved in 100 mL phosphate buffered saline) were then added to each well and the plates incubated for another 2 h. Then the plates were read in a Spectramax Gemini XS microplate fluorometer (Molecular Devices Cooperation, Sunnyvale, CA, USA) using an excitation wave length of 536 nm and an emission wave length of 588 nm. Data were analyzed using the software Softmax Pro (Molecular Devices Cooperation, Sunnyvale, CA, USA). Decrease of fluorescence (=inhibition) was expressed as percentage of the fluorescence of control cultures. For the serial drug dilution assay inhibition values were plotted against the drug concentrations and IC50 values were calculated from the sigmoidal inhibition curves.

[3] = test system: Trypanosoma brucei rhodesiense (STIB900); assay: Trypanocidal activity, bloodstream forms, Alamar Blue; assay type: cell-based; details: L-6 cells versus T. b. rhodesiense
L-6 rat myoblast cells = assay: Cytotoxicity to L-6 cells, Alamar Blue; assay type: cell-based; details: for IC50: read-out: Cytot. L-6 Cells IC50
Method: Exactly 100 μL RPMI 1640 medium supplemented with 1% L-glutamine (200 mM) and 10% fetal bovine serum containing 4 × 10^4 L-6 cells (rat skeletal myoblasts) were added to each well of a 96-well microtiter plate. After 24 h, the medium was removed from all wells and replaced by 100 μL of fresh medium containing a 3-fold serial drug dilution covering a range from 200 μg/mL to 0.274 μg/mL, except for the control wells. After 72 h of incubation 10 μL of Alamar Blue (12.5 mg resazurin dissolved in 100 mL phosphate buffered saline) were added to each well and the plates were incubated for another 2 h. Then the plates were read with a Spectramax Gemini XS microplate fluorometer as described for the leishmanicidal assay. Podophyllotoxin was used as standard drug.

cruzipain = test system: cruzipain; design: method as in doi:10.1590/S0103-50532010000100021; details: cited from earlier work
[4] = test system: L. major cathepsin L-like cysteine protease; design: method as in PMID 9371086; details: cited from earlier work
[5] = bloodstream forms, STIB900, 72 h, means of two determinations
[6] = L6, L-6 rat skeletal myoblasts, 72 h, means of two determinations
[7] = L-6 rat skeletal myoblasts, 72 h, means of two determinations

## COc1cc(/C=N/NC(=O)/C=C/c2ccccc2)ccc1O [Compound 4]
[1]; [5]
  IC50: 40.8 µM
[2]
  SI (Selectivity Index for leishmanicidal activity): 4.4
  IC50: 21.7 µM
[3]
  SI (Selectivity Index for trypanocyde activity): 2.3
L-6 rat myoblast cells; [6]
  IC50: 95.4 µM

## O=C(/C=C/c1ccccc1)NN=Cc1ccc(O)c(O)c1 [Compound 5, (E)-N'-(3,4-dihydroxybenzylidene)cinnamohydrazide]
[1]; [5]
  IC50: 1.93 µM
[2]
  SI (Selectivity Index for leishmanicidal activity): 1.2
  IC50: 11.7 µM
[3]
  SI (Selectivity Index for trypanocyde activity): 7.3
L-6 rat myoblast cells; [6]
  IC50: 14 µM
L-6 rat myoblast cells; [7]
  Cytot. L-6 Cells IC50: cytotoxic

## O=C(/C=C/c1ccccc1)N/N=C/c1ccc2c(c1)OCO2 [Compound 6]
[1]; [5]
  IC50: 89.5 µM
[2]
  SI (Selectivity Index for leishmanicidal activity): 0.3
  IC50: 12.5 µM
[3]
  SI (Selectivity Index for trypanocyde activity): 0.05
L-6 rat myoblast cells; [6]
  IC50: 4.3 µM

## COc1cc(/C=N/NC(=O)/C=C/c2ccccc2)cc(OC)c1OC [Compound 7]
[1]; [5]
  IC50: 49.3 µM
[2]
  SI (Selectivity Index for leishmanicidal activity): 34.3
  IC50: 3.5 µM
[3]
  SI (Selectivity Index for trypanocyde activity): 2.4
L-6 rat myoblast cells; [6]
  IC50: 120 µM

## O=C(/C=C/c1ccccc1)N/N=C/c1ccc(F)cc1 [Compound 8]
[1]; [5]
  IC50: 284 µM
[2]
  SI (Selectivity Index for leishmanicidal activity): >13.8
  IC50: 24.3 µM
[3]
  SI (Selectivity Index for trypanocyde activity): >1.2
L-6 rat myoblast cells; [6]
  IC50: > 335 µM

## O=C(/C=C/c1ccccc1)N/N=C/c1ccc([N+](=O)[O-])cc1 [Compound 9]
[1]; [5]
  IC50: > 300 µM
[2]
  SI (Selectivity Index for leishmanicidal activity): 24.1
  IC50: 10.6 µM
L-6 rat myoblast cells; [6]
  IC50: 255 µM

## COc1ccc(/C=N/NC(=O)/C=C/c2ccccc2)cc1 [Compound 10]
[1]; [5]
  IC50: 111 µM
[2]
  IC50: 13.8 µM
L-6 rat myoblast cells; [6]
  IC50: > 321 µM

## O=C(/C=C/c1ccccc1)N/N=C/c1ccc(Cl)cc1 [Compound 11, (2E)-N'-[(E)-4-Chlorobenzylidene]-3-phenylprop-2-enohydrazide]
[1]; [5]
  IC50: 121 µM
[2]
  SI (Selectivity Index for leishmanicidal activity): 6.0
  IC50: 10.8 µM
[3]
  SI (Selectivity Index for trypanocyde activity): 0.5
L-6 rat myoblast cells; [6]
  IC50: 65.5 µM

## O=C(/C=C/c1ccccc1)N/N=C/c1ccccc1 [Compound 12, (2E)-N'-[(E)-Benzylidene]-3-phenylprop-2-enohydrazide]
[1]; [5]
  IC50: > 300 µM
[2]
  SI (Selectivity Index for leishmanicidal activity): 3.6
  IC50: 43.1 µM
L-6 rat myoblast cells; [6]
  IC50: 157 µM

## O=C(/C=C/c1ccccc1)N/N=C/c1ccc(O)cc1 [Compound 13]
[1]; [5]
  IC50: 82.5 µM
[2]
  SI (Selectivity Index for leishmanicidal activity): 1.1
  IC50: 36.7 µM
[3]
  SI (Selectivity Index for trypanocyde activity): 0.5
L-6 rat myoblast cells; [6]
  IC50: 40.4 µM

## COc1ccc(/C=N/NC(=O)/C=C/c2ccccc2)cc1OC [Compound 14]
[1]; [5]
  IC50: 67.6 µM
[2]
  SI (Selectivity Index for leishmanicidal activity): >9.3
  IC50: 31.2 µM
[3]
  SI (Selectivity Index for trypanocyde activity): >4.3
L-6 rat myoblast cells; [6]
  IC50: > 290 µM

## O=C(/C=C/c1ccccc1)N/N=C/c1ccccc1O [Compound 15, (2E)-N'-[(E)-2-Hydroxybenzylidene]-3-phenylprop-2-enohydrazide]
[1]; [5]
  IC50: 6.72 µM
[2]
  SI (Selectivity Index for leishmanicidal activity): 4.1
  IC50: 3.61 µM
[3]
  SI (Selectivity Index for trypanocyde activity): 2.2
L-6 rat myoblast cells; [6]
  IC50: 14.9 µM
L-6 rat myoblast cells; [7]
  Cytot. L-6 Cells IC50: cytotoxic

## COc1ccc(/C=N/NC(=O)/C=C/c2ccccc2)cc1O [Compound 16]
[1]; [5]
  IC50: 80.1 µM
[2]
  SI (Selectivity Index for leishmanicidal activity): 1.4
  IC50: 33.3 µM
[3]
  SI (Selectivity Index for trypanocyde activity): 0.6
L-6 rat myoblast cells; [6]
  IC50: 48.1 µM

## Nc1nc(N)nc(Nc2ccc([As]3SCC(CO)S3)cc2)n1 (centres unmarked) [MLSP, Melarsoprol, reference compound]
[1]; 72 h
  IC50: 0.003 µM

## CCCCCCCCCCCCCCCCOP(=O)([O-])OCC[N+](C)(C)C [MTS, Miltefosine, reference compound]
[2]
  IC50: 0.348 µM

## COc1cc([C@@H]2c3cc4c(cc3[C@H](O)[C@H]3COC(=O)[C@H]23)OCO4)cc(OC)c1OC [PPT, Podophyllotoxin, reference compound]
L-6 rat myoblast cells; Rattus norvegicus, L6, 72 h
  IC50: 0.006 µM

## (E)-1-(benzo[d][1,3]dioxol-5-yl)-3-(4-bromophenyl)prop-2-en-1-one [Compound 1]
cruzipain
  IC50: 20 µM

## (E)-3-hydroxy-N'-((2-hydroxynaphthalen-1-yl)methylene)-7-methoxy-2-naphthohydrazide [Compound 2]
[4]
  IC50: 0.5 µM
